According to PubChem BioAssay (NCI):
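Cultured in 96-well plates, cells were exposed to test compound for 48 hours across five concentrations. The concentration for full growth arrest is given as TGI.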

Assays:
Experiment in all cases: NCI anticancer screen, dose series, 48 h
786-0 renal = system: 786-0 renal
HL-60(TB) leukemia = system: HL-60(TB) leukemia
UACC-257 melanoma = system: UACC-257 melanoma
A498 renal = system: A498 renal
U251 CNS = system: U251 CNS
SNB-19 CNS = system: SNB-19 CNS
SK-MEL-5 melanoma = system: SK-MEL-5 melanoma
CCRF-CEM leukemia = system: CCRF-CEM leukemia
SW-620 colon = system: SW-620 colon
SR leukemia = system: SR leukemia
OVCAR-5 ovarian = system: OVCAR-5 ovarian
TK-10 renal = system: TK-10 renal
HCT-15 colon = system: HCT-15 colon
RPMI-8226 leukemia = system: RPMI-8226 leukemia
T-47D breast = system: T-47D breast
NCI-H522 lung = system: NCI-H522 lung
BT-549 breast = system: BT-549 breast
CAKI-1 renal = system: CAKI-1 renal
SN12C renal = system: SN12C renal
SK-OV-3 ovarian = system: SK-OV-3 ovarian
OVCAR-8 ovarian = system: OVCAR-8 ovarian
OVCAR-4 ovarian = system: OVCAR-4 ovarian
COLO 205 colon = system: COLO 205 colon
DU-145 prostate = system: DU-145 prostate
SK-MEL-2 melanoma = system: SK-MEL-2 melanoma
NCI/ADR-RES ovarian = system: NCI/ADR-RES ovarian
SK-MEL-28 melanoma = system: SK-MEL-28 melanoma
MOLT-4 leukemia = system: MOLT-4 leukemia
UACC-62 melanoma = system: UACC-62 melanoma
NCI-H226 lung = system: NCI-H226 lung
SF-268 CNS = system: SF-268 CNS
M14 melanoma = system: M14 melanoma
SF-295 CNS = system: SF-295 CNS
IGROV1 ovarian = system: IGROV1 ovarian
NCI-H460 lung = system: NCI-H460 lung
SNB-75 CNS = system: SNB-75 CNS
PC-3 prostate = system: PC-3 prostate
MDA-MB-435 = system: MDA-MB-435
OVCAR-3 ovarian = system: OVCAR-3 ovarian
LOX IMVI melanoma = system: LOX IMVI melanoma
MDA-MB-231 breast = system: MDA-MB-231 breast
A549 NSCLC = system: A549 NSCLC
HOP-62 NSCLC = system: HOP-62 NSCLC
HT29 colon = system: HT29 colon
ACHN renal = system: ACHN renal
MCF7 breast = system: MCF7 breast
KM12 colon = system: KM12 colon
HCT-116 colon = system: HCT-116 colon
UO-31 renal = system: UO-31 renal
HS 578T breast = system: HS 578T breast
SF-539 CNS = system: SF-539 CNS
EKVX NSCLC = system: EKVX NSCLC
MDA-N = system: MDA-N
NCI-H23 lung = system: NCI-H23 lung
K-562 leukemia = system: K-562 leukemia
HOP-92 NSCLC = system: HOP-92 NSCLC
MALME-3M melanoma = system: MALME-3M melanoma
RXF 393 renal = system: RXF 393 renal

Nc1ncc2ncn(C3CCC(CO)O3)c2n1 (centres undefined)
TGI (786-0 renal): > 100 µM
TGI (HL-60(TB) leukemia): > 100 µM
TGI (UACC-257 melanoma): > 100 µM
TGI (A498 renal): > 100 µM
TGI (U251 CNS): > 100 µM
TGI (SNB-19 CNS): > 100 µM
TGI (SK-MEL-5 melanoma): > 100 µM
TGI (CCRF-CEM leukemia): > 100 µM
TGI (SW-620 colon): > 100 µM
TGI (SR leukemia): > 100 µM
TGI (OVCAR-5 ovarian): > 100 µM
TGI (TK-10 renal): > 100 µM
TGI (HCT-15 colon): > 100 µM
TGI (RPMI-8226 leukemia): > 100 µM
TGI (T-47D breast): > 100 µM
TGI (NCI-H522 lung): > 100 µM
TGI (BT-549 breast): > 100 µM
TGI (CAKI-1 renal): > 100 µM
TGI (SN12C renal): > 100 µM
TGI (SK-OV-3 ovarian): > 100 µM
TGI (OVCAR-8 ovarian): > 100 µM
TGI (OVCAR-4 ovarian): > 100 µM
TGI (COLO 205 colon): > 100 µM
TGI (DU-145 prostate): > 100 µM
TGI (SK-MEL-2 melanoma): > 100 µM
TGI (NCI/ADR-RES ovarian): > 100 µM
TGI (SK-MEL-28 melanoma): > 100 µM
TGI (MOLT-4 leukemia): > 100 µM
TGI (UACC-62 melanoma): > 100 µM
TGI (NCI-H226 lung): > 100 µM
TGI (SF-268 CNS): > 100 µM
TGI (M14 melanoma): > 100 µM
TGI (SF-295 CNS): > 100 µM
TGI (IGROV1 ovarian): > 100 µM
TGI (NCI-H460 lung): > 100 µM
TGI (SNB-75 CNS): > 100 µM
TGI (PC-3 prostate): > 100 µM
TGI (MDA-MB-435): > 100 µM
TGI (OVCAR-3 ovarian): > 100 µM
TGI (LOX IMVI melanoma): > 100 µM
TGI (MDA-MB-231 breast): > 100 µM
TGI (A549 NSCLC): > 100 µM
TGI (HOP-62 NSCLC): > 100 µM
TGI (HT29 colon): > 100 µM
TGI (ACHN renal): > 100 µM
TGI (MCF7 breast): > 100 µM
TGI (KM12 colon): > 100 µM
TGI (HCT-116 colon): > 100 µM
TGI (UO-31 renal): > 100 µM
TGI (HS 578T breast): > 100 µM
TGI (SF-539 CNS): > 100 µM
TGI (EKVX NSCLC): > 100 µM
TGI (MDA-N): > 100 µM
TGI (NCI-H23 lung): > 100 µM
TGI (K-562 leukemia): > 100 µM

N#C/C(=C(/O)CCl)c1nc2ccccc2o1
TGI (786-0 renal): 41.3 µM
TGI (HOP-92 NSCLC): 14.5 µM
TGI (HL-60(TB) leukemia): 7.04 µM
TGI (UACC-257 melanoma): 13.2 µM
TGI (A498 renal): 4.4 µM
TGI (U251 CNS): 23.8 µM
TGI (SNB-19 CNS): > 100 µM
TGI (SK-MEL-5 melanoma): 3.83 µM
TGI (CCRF-CEM leukemia): 90.7 µM
TGI (SW-620 colon): > 100 µM
TGI (SR leukemia): 15 µM
TGI (TK-10 renal): > 100 µM
TGI (HCT-15 colon): 4.46 µM
TGI (RPMI-8226 leukemia): 7.87 µM
TGI (T-47D breast): 44.6 µM
TGI (BT-549 breast): 5.01 µM
TGI (MALME-3M melanoma): 29.1 µM
TGI (CAKI-1 renal): 22.6 µM
TGI (SN12C renal): 9.33 µM
TGI (SK-OV-3 ovarian): 24.7 µM
TGI (OVCAR-8 ovarian): 14.9 µM
TGI (OVCAR-4 ovarian): 3.97 µM
TGI (COLO 205 colon): 3.45 µM
TGI (DU-145 prostate): > 100 µM
TGI (SK-MEL-2 melanoma): 11.6 µM
TGI (NCI/ADR-RES ovarian): 5.4 µM
TGI (RXF 393 renal): 3.77 µM
TGI (SK-MEL-28 melanoma): 3.5 µM
TGI (MOLT-4 leukemia): 10.3 µM
TGI (UACC-62 melanoma): 6.27 µM
TGI (NCI-H226 lung): 5.07 µM
TGI (SF-268 CNS): 8.57 µM
TGI (M14 melanoma): 21 µM
TGI (SF-295 CNS): 6.74 µM
TGI (IGROV1 ovarian): 4.09 µM
TGI (NCI-H460 lung): 14.3 µM
TGI (SNB-75 CNS): 23.4 µM
TGI (PC-3 prostate): 22.8 µM
TGI (MDA-MB-435): 10.8 µM
TGI (OVCAR-3 ovarian): 20.3 µM
TGI (LOX IMVI melanoma): 4.15 µM
TGI (MDA-MB-231 breast): 9.41 µM
TGI (A549 NSCLC): 34.8 µM
TGI (HOP-62 NSCLC): 41.9 µM
TGI (HT29 colon): 22.5 µM
TGI (MCF7 breast): 8.59 µM
TGI (KM12 colon): 53.3 µM
TGI (HCT-116 colon): 29.2 µM
TGI (UO-31 renal): 12.7 µM
TGI (HS 578T breast): > 100 µM
TGI (SF-539 CNS): 8.74 µM
TGI (MDA-N): 15.8 µM
TGI (NCI-H23 lung): 25.4 µM
TGI (K-562 leukemia): 9.36 µM
